Values after ≈ are worked out from the molar mass of the structure shown.
Assay: solubility of drug substance in pH 5.0 buffer solution
Assay type: physicochemical
Conditions: aqueous buffer

solubility: 9 µg/mL (≈ 19.9 µM)
Compound: CCOc1cc(CC(=O)N[C@@H](CC(C)C)c2ccccc2N2CCCCC2)ccc1C(=O)O [repaglinide, (S)-2-Ethoxy-4-[2-[[3-methyl-1-[2-(1-piperidinyl)phenyl]butyl]amino]-2-oxoethyl]benzoic acid]

Source: US20120012499A1, “TABLET FORMULATION” (Novo Nordisk A/S, priority 2006, published 2012)
